# Entries after “also recorded” stand apart in the source; their conditions may differ.
# How the values were obtained:
# Glioma 26 = test: Control experiment with cold InCl3, intratumor; format: in vivo, C57 BL/6 mice; settings: for Host weight / Tumor size: cold, i.t.
# Description: Two control experiments were made with cold InCl3 (InCl3 that had been stored for 4 weeks and was practically nonradioactive, pH=1-3) and cold In-BLMC (prepared with nonradioactive InCl3 by the same method as that used for ^111 In-BLMC, final pH=1.5-3.0). At a tumor age of 6 days, ip injections were given daily for 3 days: Group VII (n=5)--0.2 ml of 0.9% NaCl; Group VIII (n=5)--In-BLMC carried by 0.004 mg BLM/g tumor weight in 0.2 ml of 0.9% NaCl. At a tumor age of 13 days, single doses were given it: Group IX (n=2)--0.7 ml of 0.9% NaCl/g tumor weight; Group X (n=3)--InCl, 0.7 ml/g tumor weight.
# The tumor size (product of the three dimensions in mm^3) and body weight were measured daily for 16 days following the first injection. Host weight was obtained by subtracting tumor weight from body weight, where tumor weight (g)=tumor size (d1 d2 d3, mm^3)×0.00053
# glioma = test: Gamma images - tumor imaging in glioma-bearing mice; format: in vivo; settings: 24 hr after i.p. injection
# Description: The 2- to 3-week-old glioma-bearing mice (tumor size: 1.0-1.5 cm) were given injections of ^111 In-BLMC, ^67 Ga-citrate, or ^111 In-BLM into the orbital sinus (or by ip injection). Images were taken with a gamma camera (Raytheon) immediately, 1, 2, 4, 24, and 48 hr after injection by using a pinhole collimator (1/4 inch diameter), with the distance of 12 cm between mouse and collimator. ^111 In-BLM, and ^111 In-BLMC were obtained according to Examples II and III; ^67 Ga-citrate was commercially obtained from New England Nuclear (NEN), Boston, Mass.
# [1] = Whole body activity retained / excretion in normal mice; format: in vivo, C57BL/6 mice; settings: ip
# Description: Male 6-week-old C57BL/6 untreated, not tumor-bearing, mice were given intraperitoneal (ip) injectons of 30-40 μCi of ^111 InCl3, ^111 In-BLM-B2, ^111 In-BLM, ^111 In-BLMC or ^57 Co-BLM. At 1, 2, 4, 24, 48, and 72 hr after injection of the radiopharmaceutical, the animal was made to urinate and then the whole body activity was measured in a dose calibrator (FIG. 8).
# serum transferrin = test: Binding to serum transferrin, in vitro mixtures with plasma (gel electrophoresis); parameters: species or system mice
# Description: Solutions of ^111 In-BLM, ^111 In-BLM-B2, ^111 -In-BLM-A2, ^111 In-BLMC and ^57 Co-BLM were analyzed by TLC using 10% ammonium acetate-methanol (1:1 v/v) as the eluant. After applying 0.2 μl of the samples, cold air was blown over the plate for 1-2 minutes. The plate was placed in a TLC cylinder containing freshly prepared eluant and the cylinder immediately covered with a glass plate. All cylinders were enclosed in a sealed plastic bag together with an open beaker containing eluant in order to maintain a saturated atmosphere. One to three, 48-hour urine samples from normal or gliomabearing mice given injections of ^111 In-BLM or one of its fractions were also analyzed by this TLC procedure. The same urine samples were also analyzed by gel electrophoresis on 5% agarose (Sigma or BRL low EEO) (Hoch, et al Anal Biochem. 78: 312-317, 1977). The aqueous gel was equilibrated against Co2 -saturated 0.02M NaHCO3 and the electrode chambers contained CO2 -saturated 0.1M NaHCO3. […] In vitro mixtures of 5 parts urine from untreated mice and 1 part of solution of ^111 In-BLM or its fraction were similarly analyzed immediately after mixing. […] The same gel electrophoresis procedure was used for ^111 In-BLM, ^111 In-BLMC, ^111 In-BLM-A2, ^111 In-BLM-B2 and ^57 Co-BLM; the dried plates were autoradiographed or analyzed with radiochromatogram scanner. […]
compound,measurement,setting,value
[Cl][In]([Cl])[Cl] [InCl3],"Tumor size vs NaCl, comparison",Glioma 26; cold InCl3 i.t.,did not affect glioma; also recorded: the tumor sizes increased and were similar
same,Host weight,Glioma 26; day 0 after therapy,20.3 ± 2.5 g
same,Tumor size,Glioma 26; day 0 after therapy,1238 ± 711 mm^3
same,Host weight,Glioma 26; day 1 after therapy,20.4 ± 1.6 g
same,Tumor size,Glioma 26; day 1 after therapy,1741 ± 701 mm^3
same,Host weight,Glioma 26; day 2 after therapy,20.0 ± 1.6 g
same,Tumor size,Glioma 26; day 2 after therapy,1998 ± 559 mm^3
same,Host weight,Glioma 26; day 3 after therapy,20.0 ± 1.5 g
same,Tumor size,Glioma 26; day 3 after therapy,2496 ± 395 mm^3
same,Host weight,Glioma 26; day 4 after therapy,20.0 ± 1.5 g
same,Tumor size,Glioma 26; day 4 after therapy,2720 ± 503 mm^3
same,Host weight,Glioma 26; day 5 after therapy,19.9 ± 1.6 g
same,Tumor size,Glioma 26; day 5 after therapy,3333 ± 276 mm^3
same,Host weight,Glioma 26; day 6 after therapy,17.9 ± 1.9 g
same,Tumor size,Glioma 26; day 6 after therapy,3882 ± 501 mm^3
same,Host weight,Glioma 26; day 7 after therapy,18.8 ± 2.9 g
same,Tumor size,Glioma 26; day 7 after therapy,5015 ± 936 mm^3
same,Host weight,Glioma 26; day 8 after therapy,19.1 ± 2.4 g
same,Tumor size,Glioma 26; day 8 after therapy,5234 ± 1146 mm^3
same,Host weight,Glioma 26; day 9 after therapy,20.3 ± 3.8 g
same,Tumor size,Glioma 26; day 9 after therapy,5988 ± 492 mm^3
O=C([O-])CC(O)(CC(=O)[O-])C(=O)[O-].[67Ga+3] [^67 Ga-citrate],Accumulation of radioactivity in tumor (gamma images),glioma,higher for ^111 In-BLMC (FIG. 9e) than that for ^67 Ga-citrate (FIG. 9d)
same,Activity in liver and background (gamma images),glioma,lower for ^111 In-BLMC than those for ^67 Ga-citrate or ^111 In-BLM
[Cl][111In]([Cl])[Cl] [^111 InCl3],Rate of excretion (from percent activity retained),[1],"rate of excretion increased in the following order, reflecting descreasing binding capacity for transferrin: ^111 InCl3, ^111 In-BLM-B2, ^111 In-BLM, ^57 Co-BLM, ^111 In-BLMC"
same,Binding to transferrin,serum transferrin,binds to serum transferrin in vitro

# From patent publication US4620971A, “Indium-bleomycin complex” (The United States of America as represented by the …, priority 1983, dated 1986)
